Test results: PMC4094369 (Biochemical and biophysical research communications, 2013)
“And” between values parts separate entries of the source, which are not always exact repeats. Equal values may be shown once. “Also recorded” adds a separate entry of the source. Where a name gives a salt, the structure may show the parent alone. Read-outs that look alike come from different tables or passages of the source.

Tests used:
glutaminase (hKGAΔ1) [1] = target: T1, glutaminase (hKGAΔ1) (Homo sapiens, UniProt O94925); assay type: biochemical; conditions: for Mode of inhibition: competition studies, average of 2–4 determinations; for Ki: Ki (competition studies), presence of glutamine
T1 sequence (O94925 124-669 limits assumed): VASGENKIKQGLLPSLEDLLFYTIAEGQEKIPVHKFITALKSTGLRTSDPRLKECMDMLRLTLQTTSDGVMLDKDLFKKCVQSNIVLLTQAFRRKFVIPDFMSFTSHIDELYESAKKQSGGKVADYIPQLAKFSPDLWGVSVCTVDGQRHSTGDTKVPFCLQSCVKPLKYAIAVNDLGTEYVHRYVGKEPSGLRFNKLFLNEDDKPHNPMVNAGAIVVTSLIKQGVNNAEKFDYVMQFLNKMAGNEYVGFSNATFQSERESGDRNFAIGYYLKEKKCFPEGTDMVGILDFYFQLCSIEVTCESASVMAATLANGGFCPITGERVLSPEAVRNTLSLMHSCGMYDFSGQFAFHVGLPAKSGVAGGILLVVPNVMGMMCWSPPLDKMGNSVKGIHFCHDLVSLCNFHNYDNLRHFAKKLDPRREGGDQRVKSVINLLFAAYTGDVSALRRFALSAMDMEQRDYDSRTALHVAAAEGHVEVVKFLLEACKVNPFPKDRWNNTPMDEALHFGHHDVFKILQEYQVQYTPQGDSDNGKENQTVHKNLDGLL

Solubility = assay type: physicochemical; conditions: in words, no data shown
glutaminase = target: T2, glutaminase (Homo sapiens, UniProt O94925); experiment: Glutaminase activity of analogs; assay type: biochemical; conditions: for retention of biological (glutaminase) activity: analogs of chelerythrine, in words
T2 sequence (O94925 124-669 limits assumed): T1 sequence (O94925 124-669 limits assumed)

glutaminase (hKGAΔ1) [2] = target: T1, glutaminase (hKGAΔ1); experiment: Inactivation studies: time-dependent inhibition of glutaminase; assay type: biochemical; conditions: for KI (inactivation): read-out: Ki (inactivation studies); for time- and concentration-dependence of glutaminase inactivation: in words
[3] = target: T3, mouse liver glutaminase (mLGA) (Mus musculus, UniProt Q571F8); experiment: Glutaminase activity, Amplex UltraRed fluorescent assay; assay type: biochemical; conditions: for activity against GLS2 (mLGA) relative to GLS1 isoforms: fold less activity against GLS2 than GLS1 (hKGAΔ1, mGAC)
T3 sequence (Q571F8 15-602): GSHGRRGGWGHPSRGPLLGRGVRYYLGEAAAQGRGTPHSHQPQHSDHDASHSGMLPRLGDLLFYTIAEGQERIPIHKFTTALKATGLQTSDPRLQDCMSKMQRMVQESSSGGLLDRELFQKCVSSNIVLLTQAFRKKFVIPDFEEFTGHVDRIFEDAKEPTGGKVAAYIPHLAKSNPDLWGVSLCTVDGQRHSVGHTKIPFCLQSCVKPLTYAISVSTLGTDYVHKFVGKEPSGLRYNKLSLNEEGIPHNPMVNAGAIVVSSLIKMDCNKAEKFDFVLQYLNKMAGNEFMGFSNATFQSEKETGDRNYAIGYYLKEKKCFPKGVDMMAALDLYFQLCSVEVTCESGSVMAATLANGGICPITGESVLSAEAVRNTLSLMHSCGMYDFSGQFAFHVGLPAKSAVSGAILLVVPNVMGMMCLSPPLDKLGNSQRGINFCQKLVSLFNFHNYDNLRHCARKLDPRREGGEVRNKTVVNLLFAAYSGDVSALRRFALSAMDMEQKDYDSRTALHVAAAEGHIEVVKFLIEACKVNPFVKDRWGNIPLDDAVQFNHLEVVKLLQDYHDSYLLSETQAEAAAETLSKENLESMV

hKGAΔ1 (GLS1) = target: T4, hKGAΔ1 (GLS1) (Homo sapiens, UniProt O94925); experiment: as above; assay type: biochemical
T4 sequence (O94925 124-669 limits assumed): T1 sequence (O94925 124-669 limits assumed)

[4] = target: T5, mouse c-type glutaminase (mGAC) (Mus musculus, UniProt D3Z7P3); experiment: as above; assay type: biochemical
T5 sequence (D3Z7P3 55-603 isoform D3Z7P3-2 limits assumed): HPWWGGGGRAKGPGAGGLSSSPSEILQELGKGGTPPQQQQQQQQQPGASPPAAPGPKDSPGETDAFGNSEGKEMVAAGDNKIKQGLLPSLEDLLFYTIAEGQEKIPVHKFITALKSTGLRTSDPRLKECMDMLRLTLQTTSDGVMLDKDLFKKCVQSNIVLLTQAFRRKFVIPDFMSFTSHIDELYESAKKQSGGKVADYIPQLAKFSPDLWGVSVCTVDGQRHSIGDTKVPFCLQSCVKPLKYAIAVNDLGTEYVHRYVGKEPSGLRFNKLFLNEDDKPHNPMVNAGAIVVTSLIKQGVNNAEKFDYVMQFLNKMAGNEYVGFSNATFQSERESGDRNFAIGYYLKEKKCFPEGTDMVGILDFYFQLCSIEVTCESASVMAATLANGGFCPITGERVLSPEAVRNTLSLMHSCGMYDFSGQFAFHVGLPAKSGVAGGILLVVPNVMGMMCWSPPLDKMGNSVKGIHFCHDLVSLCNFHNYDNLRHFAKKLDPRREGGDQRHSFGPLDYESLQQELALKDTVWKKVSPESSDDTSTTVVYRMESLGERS

[5] = in vivo; cited from earlier work
[6] = read-out: Avg. IC50, Table 6, analogs of apomorphine

COc1ccc2c(c[n+](C)c3c4cc5c(cc4ccc23)OCO5)c1OC [Chelerythrine chloride, 1,2-dimethoxy-N-methyl[1,3]benzodioxolo[5,6-c]phenanthridinium]
Mode of inhibition (glutaminase (hKGAΔ1) [1]): Competitive | Mode of inhibition (glutaminase (hKGAΔ1) [1]; listed as chelerythrine): competitive inhibition | solubility relative to BPTES (Solubility): more soluble than BPTES | IC50 (glutaminase): 30 nM | kinact/KI (glutaminase (hKGAΔ1) [2]): 29200 M⁻¹ s⁻¹ | kinact (glutaminase (hKGAΔ1) [2]; rate constant of inactivation): 0.000958 s⁻¹ | KI (inactivation) (glutaminase (hKGAΔ1) [2]): 30 nM | IC50 [3]: 300 nM | activity against GLS2 (mLGA) relative to GLS1 isoforms [3]: 5 to 10 fold | IC50 (hKGAΔ1 (GLS1)): 30 nM | IC50 [4]: 70 nM

O=C(Cc1ccccc1)Nc1nnc(CCSCCc2nnc(NC(=O)Cc3ccccc3)s2)s1 [BPTES, bis-2-(5-phenylacetimido-1,2,4-thiadiazol-2-yl)ethyl sulfide]
bioavailability [5]: low bioavailability

C[n+]1cc2c3c(ccc2c2ccc4cc5c(cc4c21)OCO5)OCO3 [Sanguinarine chloride, 13-methyl-[1,3]-benzodioxolo[5,6-c]-1,3-dioxolo[4,5-i]phenanthridinium]
IC50 (glutaminase): 100 nM | retention of biological (glutaminase) activity (glutaminase; listed as sanguinarine): retained | retention of biological (glutaminase) activity (glutaminase; listed as sanguinarine chloride): retained biological activity

O=C1c2ccccc2CN1c1ccccc1 [2-Phenyl isoindolin-1-one]
IC50 (glutaminase): > 100000 nM

[N-]=[N+]=CC(=O)CC[C@H](N)C(=O)O [DON, 6-diazo-5-oxo-L-norleucine]
Mode of inhibition (glutaminase (hKGAΔ1) [1]): Time-dependent | kinact/KI (glutaminase (hKGAΔ1) [2]): 2.53 M⁻¹ s⁻¹ | time- and concentration-dependence of glutaminase inactivation (glutaminase (hKGAΔ1) [2]): both concentration and time of incubation dependent; also recorded: time-dependent and irreversible | kinact (glutaminase (hKGAΔ1) [2]; rate constant of inactivation): 1.39e-05 s⁻¹ | KI (inactivation) (glutaminase (hKGAΔ1) [2]): 6000 nM

R(−)-Propylnorapomorphine hydrochloride
IC50 (glutaminase; [6]): 900 nM

c1cc2c(cnc3c4cc5c(cc4ccc23)OCO5)c2c1OCO2 [Norsanguinarine chloride, [1,3]-benzodioxolo[5,6-c]-1,3-dioxolo[4,5-i]phenanthridine]
IC50 (glutaminase): > 100000 nM | retention of biological (glutaminase) activity (glutaminase): biological activity was lost

O=c1c2ccccc2on1-c1ccccc1 [2-Phenylbenzo[d] isoxazol-3(2H)-one]
IC50 (glutaminase): 20000 nM

O=c1c2ccccc2[se]n1-c1ccccc1 [Ebselen, 2-phenyl-1,2-benzisoselenazol-3[2H]-one]
Ki (glutaminase (hKGAΔ1) [1]): ~15 nM and 15 nM | decrease in Vmax (glutaminase (hKGAΔ1) [1]; as the concentration of inhibitor was increased): 6 fold | Mode of inhibition (glutaminase (hKGAΔ1) [1]): Mixed non-competitive | Mode of inhibition (glutaminase (hKGAΔ1) [1]; listed as ebselen): mixed non-competitive inhibition | solubility relative to BPTES (Solubility): more soluble than BPTES | kinact (glutaminase (hKGAΔ1) [2]): 0.000367 s⁻¹ | kinact/KI (glutaminase (hKGAΔ1) [2]): 25200 M⁻¹ s⁻¹ | time- and concentration-dependence of glutaminase inactivation (glutaminase (hKGAΔ1) [2]): dependent on both concentration and time of incubation | kinact (glutaminase (hKGAΔ1) [2]; rate constant of inactivation): 0.000364 s⁻¹ | KI (inactivation) (glutaminase (hKGAΔ1) [2]): ~14 nM and 14 nM | IC50 [3]: 100 nM | activity against GLS2 (mLGA) relative to GLS1 isoforms [3]: 5 to 10 fold | IC50 (hKGAΔ1 (GLS1)): 8 nM | IC50 [4]: 20 nM

COc1ccc2cc3[n+](cc2c1OC)CCc1cc2c(cc1-3)OCO2 [Berberine chloride, 5,6-dihydro-9,10-dimethoxy-benzo[g]-[1,3] benzodioxolo[5,6-a]quinolizinium]
IC50 (glutaminase): > 100000 nM | retention of biological (glutaminase) activity (glutaminase): did not maintain activity

CN1CCc2cccc3c2[C@@H]1Cc1ccc(O)c(O)c1-3 [S–Apomorphine hydrochloride]
IC50 (glutaminase; [6]): 400 nM

COc1cc2c[n+](C)c3c4cc5c(cc4ccc3c2cc1OC)OCO5 [Nitidine chloride, 2,3-dimethoxy-N-methyl[1,3]benzodioxolo[5,6-c]phenanthridinium]
IC50 (glutaminase): 9000 nM | retention of biological (glutaminase) activity (glutaminase; listed as nitidine): retained | retention of biological (glutaminase) activity (glutaminase; listed as nitidine chloride): retained biological activity

O=c1c2ccccc2sn1-c1ccccc1 [2-Phenylbenzo[d]isothiazol-3(2H)-one]
IC50 (glutaminase): 20 nM

CN1CCc2cccc3c2C1Cc1ccc(O)c(O)c1-3 (stereo not shown) [Apomorphine hydrochloride, 5,6,6a,7-tetrahydro-6-methyl-4H-dibenzo[de,g] quinoline-10,11-diol]
Ki (glutaminase (hKGAΔ1) [1]): 2000 nM | Mode of inhibition (glutaminase (hKGAΔ1) [1]): Competitive | Mode of inhibition (glutaminase (hKGAΔ1) [1]; listed as apomorphine): competitive inhibition | solubility relative to BPTES (Solubility): more soluble than BPTES | IC50 (glutaminase): 600 nM | kinact/KI (glutaminase (hKGAΔ1) [2]): 13200 M⁻¹ s⁻¹ | kinact (glutaminase (hKGAΔ1) [2]; rate constant of inactivation): 5.56e-05 s⁻¹ | KI (inactivation) (glutaminase (hKGAΔ1) [2]): 4 nM | IC50 [3]: 300 nM | IC50 [4]: 1000 nM

R(−)-Apocodeine hydrochloride
loss of activity relative to apomorphine (glutaminase; hydroxyl replaced with methoxy): 10 fold | IC50 (glutaminase; [6]): 4000 nM
